In patent US7205295B2, “Benzoxazin-3-ones and derivatives thereof as therapeutic agents” (Warner-Lambert Company LLC, priority 2002, dated 2007):
Where a name gives a salt, the structure may show the parent alone.

The compounds below were run against T1, PI3Kγ (p101/p110γ protein) (Homo sapiens, UniProt P48736) (assay: PI3Kγ In Vitro Kinase Assay). Details: purified recombinant p101/p110γ with G protein β1/γ2 subunits; 20 μM ATP, 25 μM PIP2; 20 minutes at room temperature.
T1 construct: HA; made in house; host or cells: Spodoptera frugiperda (Sf9) cells, baculovirus co-infection
Format: biochemical
How it was run: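 Reactions ran 20 min at room temperature, pairing lipid micelles (25 μM PIP2, 300 μM PE, 0.02% Na-cholate, 10 mM MgCl2) with 20 μM ATP including [γ-32P]ATP. The enzyme was recombinant p101/p110γ (2.7 nM) with G protein β1/γ2 (57.7 nM). [32P]PIP3 product was stopped with H3PO4, filtered and scintillation counted.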

T1 sequence (P48736 whole entry, species assumed): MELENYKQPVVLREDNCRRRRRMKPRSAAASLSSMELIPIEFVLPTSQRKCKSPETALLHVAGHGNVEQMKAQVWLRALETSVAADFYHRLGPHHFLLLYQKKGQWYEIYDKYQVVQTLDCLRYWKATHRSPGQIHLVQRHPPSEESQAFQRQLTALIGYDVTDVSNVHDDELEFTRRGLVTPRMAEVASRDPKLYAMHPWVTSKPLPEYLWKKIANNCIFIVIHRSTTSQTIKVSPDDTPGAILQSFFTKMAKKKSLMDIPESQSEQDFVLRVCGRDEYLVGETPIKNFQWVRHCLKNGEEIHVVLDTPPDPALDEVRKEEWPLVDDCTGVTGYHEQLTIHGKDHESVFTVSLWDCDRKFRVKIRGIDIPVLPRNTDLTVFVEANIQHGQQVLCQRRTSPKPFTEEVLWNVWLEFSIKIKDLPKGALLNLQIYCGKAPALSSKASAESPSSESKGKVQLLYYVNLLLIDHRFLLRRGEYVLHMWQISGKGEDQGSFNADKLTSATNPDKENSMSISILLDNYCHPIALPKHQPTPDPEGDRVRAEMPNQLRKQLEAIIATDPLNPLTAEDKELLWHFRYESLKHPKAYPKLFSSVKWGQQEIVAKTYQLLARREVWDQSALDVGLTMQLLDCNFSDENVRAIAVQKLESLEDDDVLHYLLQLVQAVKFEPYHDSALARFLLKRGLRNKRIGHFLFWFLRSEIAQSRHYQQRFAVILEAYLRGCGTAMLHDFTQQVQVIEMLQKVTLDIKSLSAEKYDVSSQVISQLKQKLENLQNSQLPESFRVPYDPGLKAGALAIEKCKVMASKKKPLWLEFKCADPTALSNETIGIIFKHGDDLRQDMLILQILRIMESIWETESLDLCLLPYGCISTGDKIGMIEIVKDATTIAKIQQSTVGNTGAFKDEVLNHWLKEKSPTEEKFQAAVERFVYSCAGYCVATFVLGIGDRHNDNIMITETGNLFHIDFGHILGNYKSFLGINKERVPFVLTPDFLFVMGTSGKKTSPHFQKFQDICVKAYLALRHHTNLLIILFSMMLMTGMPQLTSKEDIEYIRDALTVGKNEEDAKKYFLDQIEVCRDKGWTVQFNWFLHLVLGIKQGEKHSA
T1 sequence (Q8WYR1 whole entry partner, species assumed): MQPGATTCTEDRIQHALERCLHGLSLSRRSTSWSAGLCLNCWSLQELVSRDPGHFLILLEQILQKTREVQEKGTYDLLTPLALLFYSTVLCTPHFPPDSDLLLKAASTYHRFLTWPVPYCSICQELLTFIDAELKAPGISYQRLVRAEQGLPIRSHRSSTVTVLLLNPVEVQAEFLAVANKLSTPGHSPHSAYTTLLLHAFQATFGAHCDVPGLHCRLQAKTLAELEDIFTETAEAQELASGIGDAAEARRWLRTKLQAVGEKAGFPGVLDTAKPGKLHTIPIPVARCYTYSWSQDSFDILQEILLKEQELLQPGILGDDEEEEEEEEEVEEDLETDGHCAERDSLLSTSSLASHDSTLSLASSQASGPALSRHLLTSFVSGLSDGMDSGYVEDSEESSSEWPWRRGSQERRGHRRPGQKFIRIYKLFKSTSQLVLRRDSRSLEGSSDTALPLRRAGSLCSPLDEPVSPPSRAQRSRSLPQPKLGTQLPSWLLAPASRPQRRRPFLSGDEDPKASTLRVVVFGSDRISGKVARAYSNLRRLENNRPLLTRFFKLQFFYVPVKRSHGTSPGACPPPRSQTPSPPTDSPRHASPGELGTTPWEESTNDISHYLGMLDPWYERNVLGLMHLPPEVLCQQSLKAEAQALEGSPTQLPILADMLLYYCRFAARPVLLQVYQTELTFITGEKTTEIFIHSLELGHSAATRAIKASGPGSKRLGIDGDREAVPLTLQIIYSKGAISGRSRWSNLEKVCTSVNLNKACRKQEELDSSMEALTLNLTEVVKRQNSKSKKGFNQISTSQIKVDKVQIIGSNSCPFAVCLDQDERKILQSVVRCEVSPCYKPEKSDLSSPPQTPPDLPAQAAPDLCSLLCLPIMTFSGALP

Compound	IC50 [nM]
O=C1NC(=S)SC1=Cc1ccc2c(c1)N(Cc1cc(F)cc(C(F)(F)F)c1)C(=O)CO2 [Example 187, 4-(3-Fluoro-5-trifluoromethyl-benzyl)-6-(4-oxo-2-thioxo-thiazolidin-5-ylidenemethyl)-4H-1,4-benzoxazin-3-one]	98
O=C1NC(=S)SC1=Cc1cnc2c(c1)N(Cc1ccccc1)C(=O)CO2 [Example 189, 1-Benzyl-7-(4-oxo-2-thioxo-thiazolidin-5-ylidenemethyl)-1H-pyrido[2,3-b][1,4]oxazin-2-one; compound with ethane-1,2-diamine]	640
CN1CC(=O)Nc2cc(C=C3SC(=S)NC3=O)ccc21 [Example 190, 4-Methyl-7-(4-oxo-2-thioxo-thiazolidin-5-ylidenemethyl)-3,4-dihydro-1H-quinoxalin-2-one]	240
O=C1NC(=S)OC1=Cc1ccc2c(c1)N(Cc1ccc(Cl)c(Cl)c1)C(=O)CO2 [Example 191, 4-(3,4-Dichloro-benzyl)-6-(4-oxo-2-thioxo-oxazolidin-5-ylidenemethyl)-4H-1,4-benzoxazin-3-one]	7
O=C1COc2ncc(C=C3SC(=S)NC3=O)cc2N1 [Example 195, 7-(4-Oxo-2-thioxo-thiazolidin-5-ylidenemethyl)-1H-pyrido[2,3-b][1,4]oxazin-2-one]	1910
O=C1NC(=S)OC1=Cc1ccc2c(c1)N(Cc1ccc(Cl)c(C(F)(F)F)c1)C(=O)CO2 [Example 196, 4-(4-Chloro-3-trifluoromethyl-benzyl)-6-(4-oxo-2-thioxo-oxazolidin-5-ylidenemethyl)-4H-1,4-benzoxazin-3-one]	26
O=C1NC(=S)OC1=Cc1ccc2c(c1)N(Cc1ccc(Cl)c(Cl)c1)C(=O)CS2 [Example 199, 4-(3,4-Dichlorobenzyl)-6-(4-oxo-2-thioxo-oxazolidin-5-ylidenemethyl)-4H-benzo[1,4]thiazin-3-one]	9
O=C1COc2ccc(C=C3NC(=S)NC3=O)cc2N1 [Example 200, 6-(5-Oxo-2-thioxo-imidazolidin-4-ylidenemethyl)-4H-benzo[1,4]oxazin-3-one]	3640
CC(C)(C)c1cc(CN2C(=O)COc3ccc(C=C4OC(=S)NC4=O)cc32)cc(C(C)(C)C)n1 [Example 201, 4-(2,6-Di-tert-butyl-pyridin-4-ylmethyl)-6-(4-oxo-2-thioxo-oxazolidin-5-ylidenemethyl)-4H-1,4-benzoxazin-3-one]	70
O=C1NC(=O)C(=Cc2ccc3c(c2)N(Cc2ccccc2)C(=O)CO3)S1 [Example 202, 5-(4-Benzyl-3-oxo-3,4-dihydro-2H-1,4-benzoxazin-6-ylmethylene)-thiazolidine-2,4-dione]	3
O=C1COc2ccc(C=C3OC(=O)NC3=O)cc2N1 [Example 203, 5-(3-Oxo-3,4-dihydro-2H-1,4-benzoxazin-6-ylmethylene)-oxazolidine-2,4-dione]	175
COc1cc(CN2C(=O)COc3ccc(C=C4SC(=S)NC4=O)cc32)cc(OC)n1 [Example 206, 4-(2,6-Dimethoxy-pyridin-4-ylmethyl)-6-(4-oxo-2-thioxo-thiazolidin-5-ylidenemethyl)-4H-benzo[1,4]oxazine-3-one]	60
CC(C)c1cc(CN2C(=O)COc3ccc(C=C4SC(=S)NC4=O)cc32)cc(C(C)C)c1 [Example 210, 4-(3,5-Diisopropyl-benzyl)-6-(4-oxo-2-thioxo-thiazolidin-5-ylidenemethyl)-4H-benzo[1,4]oxazin-3-one]	45
Cc1cc(CN2C(=O)COc3ccc(C=C4SC(=S)NC4=O)cc32)cc(C(C)(C)C)c1 [Example 211, 4-(3-tert-Butyl-5-methyl-benzyl)-6-(4-oxo-2-thioxo-thiazolidin-5-ylidenemethyl)-4H-1,4-benzoxazin-3-one]	17
CC(C)(C)OC(=O)N1CCN(C(=O)CN2C(=O)COc3ccc(C=C4SC(=S)NC4=O)cc32)CC1 [Example 214, 4-{2-[3-Oxo-6-(4-oxo-2-thioxo-thiazolidin-5-ylidenemethyl)-2,3-dihydro-1,4-benzoxazin-4-yl]-acetyl}-piperazine-1-carboxylic acid tert-butyl ester]	3180
O=C1NC(=S)SC1=Cc1ccc2c(c1)N(CC(=O)N1CCNCC1)C(=O)CO2 [Example 215, 4-(2-Oxo-2-piperazin-1-yl-ethyl)-6-(4-oxo-2-thioxo-thiazolidin-5-ylidenemethyl)-4H-1,4-benzoxazin-3-one]	1080
CC(C)(C)c1cc(CN2C(=O)COc3ccc(C=C4SC(=S)NC4=O)cc32)cc(C(N)=O)c1 [Example 216, 3-tert-Butyl-5-[3-oxo-6-(4-oxo-2-thioxo-thiazolidin-5-ylidenemethyl)-2,3-dihydro-1,4-benzoxazin-4-ylmethyl]-benzamide]	26
Cc1cc(C)cc(C(C)N2C(=O)COc3ccc(C=C4SC(=S)NC4=O)cc32)c1 (stereo not shown) [Example 218, 4-[1-(3,5-Dimethyl-phenyl)-ethyl]-6-(4-oxo-2-thioxo-thiazolidin-5-ylidenemethyl)-4H-1,4-benzoxazin-3-one]	55
CC(C)(C)c1cc(CN2C(=O)COc3ccc(C=C4SC(=O)NC4=O)cc32)cc(C(C)(C)C)c1O [Example 219, 5-[4-(3,5-Di-tert-butyl-4-hydroxy-benzyl)-3-oxo-3,4-dihydro-2H-1,4-benzoxazin-6-ylmethylene]-thiazolidine-2,4-dione]	6
CC(C)(C)c1cc(CN2C(=O)COc3c(F)cc(C=C4SC(=S)NC4=O)cc32)cc(C(C)(C)C)n1 [Example 220, 4-(2,6-Di-tert-butyl-pyridin-4-ylmethyl)-8-fluoro-6-(4-oxo-2-thioxo-thiazolidin-5-ylidenemethyl)-4H-1,4-benzoxazin-3-one]	495
Cc1cc(C=C2SC(=S)NC2=O)cc2c1OCC(=O)N2Cc1cc(C(C)(C)C)nc(C(C)(C)C)c1 [Example 221, 4-(2,6-Di-tert-butyl-pyridin-4-ylmethyl)-8-methyl-6-(4-oxo-2-thioxo-thiazolidin-5-ylidenemethyl)-4H-1,4-benzoxazin-3-one]	895
Cc1cc(C=C2SC(=O)NC2=O)cc2c1OCC(=O)N2Cc1cc(C(C)(C)C)nc(C(C)(C)C)c1 [Example 224, 5-[4-(2,6-Di-tert-butyl-pyridin-4-ylmethyl)-8-methyl-3-oxo-3,4-dihydro-2H-1,4-benzoxazin-6-ylmethylene]-thiazolidine-2,4-dione]	255

More lines, now with the values ahead:

IC50 [nM]	Compound
20	O=C1NC(=S)SC1=Cc1ccc2c(c1)N(Cc1ccc3ccccc3c1)C(=O)CO2 [Example 188, 4-Naphthalen-2-ylmethyl-6-(4-oxo-2-thioxo-thiazolidin-5-ylidenemethyl)-4H-1,4-benzoxazin-3-one]
8	CS(=O)(=O)c1ccc(CN2C(=O)COc3ccc(C=C4SC(=S)NC4=O)cc32)cc1 [Example 192, 4-(4-Methanesulfonyl-benzyl)-6-(4-oxo-2-thioxo-thiazolidin-5-ylidenemethyl)-4H-1,4-benzoxazin-3-one]
6	CS(=O)(=O)c1ccc(CN2C(=O)COc3ccc(C=C4SC(=S)NC4=O)cc32)cc1 [Example 193, 4-(4-Methanesulfonyl-benzyl)-6-(4-oxo-2-thioxo-thiazolidin-5-ylidenemethyl)-4H-1,4-benzoxazin-3-one, Potassium Salt]
6	O=C1NC(=S)SC1=Cc1ccc2c(c1)N(Cc1ccc(Cl)c(C(F)(F)F)c1)C(=O)CO2 [Example 194, 4-(4-Chloro-3-trifluoromethylbenzyl)-6-(4-oxo-2-thioxo-thiazolidin-5-ylidenemethyl)-4H-1,4-benzoxazin-3-one, Potassium Salt]
390	CN1CC(=O)N(Cc2ccccc2)c2cc(C=C3SC(=S)NC3=O)ccc21 [Example 197, 1-Benzyl-4-methyl-7-(4-oxo-2-thioxo-thiazolidin-5-ylidenemethyl)-3,4-dihydro-1H-quinoxalin-2-one]
6	O=C1NC(=S)SC1=Cc1ccc2c(c1)N(Cc1ccc(Cl)c(Cl)c1)C(=O)CS2 [Example 198, 4-(3,4-Dichloro-benzyl)-6-(4-oxo-2-thioxo-thiazolidin-5-ylidenemethyl)-4H-1,4-benzothiazin-3-one]
32	COc1cc(CN2C(=O)COc3ccc(C=C4SC(=S)NC4=O)cc32)cc(Cl)n1 [Example 205, 4-(2-Chloro-6-methoxy-pyridin-4-ylmethyl)-6-(4-oxo-2-thioxo-thiazolidin-5-ylidenemethyl)-4H-benzo[1,4]oxazin-3-one]
22	CC(C)(C)c1cc(CO)cc(CN2C(=O)COc3ccc(C=C4SC(=S)NC4=O)cc32)c1 [Example 212, 4-(3-tert-Butyl-5-hydroxymethyl-benzyl)-6-(4-oxo-2-thioxo-thiazolidin-5-ylidenemethyl)-4H-1,4-benzoxazin-3-one]
2100	CC1CC(C)CN(C(=O)CN2C(=O)COc3ccc(C=C4SC(=S)NC4=O)cc32)C1 (stereo not shown) [Example 213, 4-[2-(3,5-Dimethyl-piperidin-1-yl)-2-oxo-ethyl]-6-(4-oxo-2-thioxo-thiazolidin-5-ylidenemethyl)-4H-1,4-benzoxazin-3-one]
42	O=C1NC(=S)SC1=Cc1ccc2c(c1)N(Cc1cc(Br)cc(Br)c1)C(=O)CO2 [Example 217, 4-(3,5-Dibromo-benzyl)-6-(4-oxo-2-thioxo-thiazolidin-5-ylidenemethyl)-4H-1,4-benzoxazin-3-one]
6	CN1CCN(Cc2cc(CN3C(=O)COc4ccc(C=C5SC(=S)NC5=O)cc43)cc(C(C)(C)C)c2)CC1 [Example 222, 4-[3-tert-Butyl-5-(4-methyl-piperazin-1-ylmethyl)-benzyl]-6-(4-oxo-2-thioxo-thiazolidin-5-ylidenemethyl)-4H-1,4-benzoxazin-3-one]
295	CC1Oc2ccc(C=C3SC(=S)NC3=O)cc2N(Cc2ccc(CN3CCN(C)CC3)cc2)C1=O (stereo not shown) [Example 223, 2-Methyl-4-[4-(4-methyl-piperazin-1-ylmethyl)-benzyl]-6-(4-oxo-2-thioxo-thiazolidin-5-ylidenemethyl)-4H-1,4-benzoxazin-3-one]
